How the values were obtained:
Format in all cases: cell-based, Human papilloma virus
HPV 16 = HPV 16 episome DNA levels in W12E cells by Q-PCR (Taqman); details: for IC50: effective (pseudo) IC50, 50% reduction in HPV DNA relative to vehicle (0.1% DMSO), read-out: HPV-16 IC50
Method: Cells maintaining HPV 16 DNA were cultured for 72 hours in the presence of cidofovir, interferon γ or polyamide. Viral DNA was then quantified using real-time PCR and compared to vehicle (DMSO)-treated control cultures.
Compounds were initially tested for effects on HPV 16 episome DNA levels in W12E cells by Q-PCR (Taqman™) over 3 concentration ranges (0.1, 1 and 10 μM). W12E cells are a cervical keratinocyte cell line originally identified by M. Stanley (Cambridge University), and later optimized and provided by P. Lambert (U. of Wisconsin). […] In all cases (initial tests and follow-up IC50 tests), dose testing was performed in triplicate. […] Furthermore, all experiments were conducted in triplicate, multiple times. The data were then combined, pseudo or effective IC50 values calculated, and variance determined to reveal the fit of the data to the model and its reliability.
Keratinocytes that maintain HPV 16 episomes were treated with increasing concentrations of polyamides.

HPV31 = HPV31 DNA levels in keratinocytes by real-time PCR; details: effective (pseudo) IC50
Method: (§1) Human keratinocytes, including those maintaining HPV episomes, are cultured on mitomycin C-treated J2 3T3 cells in media containing three parts Dulbecco's modified Eagle medium (DMEM) and one part F12 media, our modification of published methods (Rheinwald and Green, 1975). Media (E Media) is supplemented with 0.4 μg/mL hydrocortisone, 10 ng/mL cholera toxin, 5 μg/mL insulin, 24 μg/mL adenine, 5 μg/mL transferrin, […] (T3), 10 ng/mL epidermal growth factor (EGF), 1% penicillin-streptomycin, and 5% fetal bovine serum (FBS). All cells are passaged at 70% confluency at a split ratio of 1:5.
(§2) Polyamides for HPV 18 are dissolved at 10 mM in 100% DMSO and diluted with H2O to 1 mM. Polyamides are added to cells in E media at final concentrations of 0.1-10 μM, with final DMSO concentrations of 0.1%. As controls, cells are incubated with normal E media and E media containing the “vehicle” 0.1% DMSO. The HPV DNA levels are then quantified according to previously published procedures (Garner-Hamrick and Fisher, Virology, 301, 334-41, 2002). After incubation, cells are harvested from the plates by either trypsinization or direct lysis with proteinase K digestion buffer (PK buffer: 100 mM NaCl, 10 mM Tris pH 8, 25 mM EDTA, 0.5% SDS, 0.1 mg/mL proteinase K). Trypsinized cells are counted on a hemocytometer and pelleted by centrifugation. Episomal HPV is isolated by the Hirt method (Hirt, 1967) and cell pellets are lysed in 0.6% SDS with 10 mM EDTA. NaCl is next added to a final concentration of 1 M. Following an overnight incubation at 4° C., precipitates containing the chromosomal DNA are spun down and episomal DNA precipitated by the addition of isopropanol. Cells lysed directly in PK buffer are transferred to microfuge tubes and incubated at 50° C. for 2 h. Lysates are then extracted with phenol/chloroform/isoamyl alcohol and spun through a phase lock gel (Eppendorf, Hamburg, Germany). Total DNA is then precipitated with 0.3 M NaOAc and 2.5 vol. ethanol and resuspended in Tris-EDTA (TE) buffer.
HPV31 primers-probe sets for PCR were also designed within the L1 gene:
(§3) All primers and probes are synthesized and HPLC purified by Applied Biosystems (Foster City, Calif.). The HPV probes are labeled with the 5′ reporter dye FAM (6-carboxy-fluorescein) and the 3′ quencher dye TAMRA (6-carboxytetramethyl-rhodamine). A standard curve is generated using a range of 10^8 to 10 copies/reaction of cloned, genomic HPV31 or HPV18 DNA using the following formula: (1.82×10^15)(μg/μL stock DNA)/(length in base pairs)(2)=copies/μL stock DNA. PCR reactions contain final concentrations of 1× Universal Master Mix (PE Applied Biosystems), 200 nM of each primer, and 250 nM probe (PE Applied Biosystems) in a reaction volume of 25 μL. Each Hirt-isolated DNA sample is analyzed in triplicate reactions for episomal HPV. Copies/reaction are determined from the standard curve, and copies/cell determined according to the following formula: (copies/reaction)×(DNA dilution)/(total # cells)=copies/cell.

HPV18 = HPV18 DNA levels in keratinocytes by real-time PCR; details: effective (pseudo) IC50
Method: as §1, §2
Viral DNA levels are next quantified according to variations on our previously published methods (Garner-Hamrick and Fisher, Virology, 301, 334-41, 2002). Quantitative PCR is performed using Real-Time PCR technology on an ABI PRISM 7700 Sequence Detector. All primers and probes were designed using Primer Express 1.0 (ABI). For HPV 18, PCR primer-probe sets were designed within the L1 gene:
as §3

CN(C)CCCNC(=O)CCNC(=O)c1cc(NC(=O)CCNC(=O)c2cc(NC(=O)c3cc(NC(=O)c4cc(NC(=O)CCNC(=O)c5cc(NC(=O)c6cc(NC(=O)CCCNC(=O)CCNC(=O)c7cc(NC(=O)c8cc(NC(=O)CCNC(=O)c9cc(NC(=O)c%10cc(NC(=O)c%11cc(NC(=O)c%12nccn%12C)cn%11C)cn%10C)cn9C)cn8C)cn7C)cn6C)cn5C)cn4C)cn3C)cn2C)cn1C [Polyamide 1022, ImPPPβPPβγPPβPPPβPβDp]
IC50 (HPV 16): > 1000 nM | IC50 (HPV31): ≥ 1000 nM

CN(C)CCCNC(=O)CCNC(=O)c1cc(NC(=O)c2cc(NC(=O)c3cc(NC(=O)c4cc(NC(=O)CCNC(=O)c5cc(NC(=O)c6cc(NC(=O)CCCNC(=O)c7cc(NC(=O)c8cc(NC(=O)c9cc(NC(=O)CCNC(=O)c%10cc(NC(=O)c%11cc(NC(=O)c%12nccn%12C)cn%11C)cn%10C)cn9C)cn8C)cn7C)cn6C)cn5C)cn4C)cn3C)cn2C)cn1C [Polyamide 1023, ImPPβPPPγPPβPPPPβDp]
IC50 (HPV 16): > 1000 nM | IC50 (HPV31): ≥ 1000 nM

CN(CCCN)CCCNC(=O)CCNC(=O)c1cc(NC(=O)CCNC(=O)c2cc(NC(=O)c3cc(NC(=O)c4cc(NC(=O)CCNC(=O)c5cc(NC(=O)c6cc(NC(=O)CCCNC(=O)CCNC(=O)c7cc(NC(=O)c8cc(NC(=O)CCNC(=O)c9cc(NC(=O)c%10cc(NC(=O)c%11cc(NC(=O)c%12nccn%12C)cn%11C)cn%10C)cn9C)cn8C)cn7C)cn6C)cn5C)cn4C)cn3C)cn2C)cn1C [Polyamide 1027, ImPPPβPPβγPPβPPPβPβTa]
IC50 (HPV 16): 100 to 1000 nM | IC50 (HPV18): 100 to 1000 nM | IC50 (HPV31): 100 to 1000 nM

CN(C)CCCNC(=O)CCNC(=O)c1cc(NC(=O)CCNC(=O)c2cc(NC(=O)c3cc(NC(=O)c4cc(NC(=O)CCNC(=O)c5cc(NC(=O)c6cc(NC(=O)[C@H](N)CCNC(=O)CCNC(=O)c7cc(NC(=O)c8cc(NC(=O)CCNC(=O)c9cc(NC(=O)c%10cc(NC(=O)c%11cc(NC(=O)c%12nccn%12C)cn%11C)cn%10C)cn9C)cn8C)cn7C)cn6C)cn5C)cn4C)cn3C)cn2C)cn1C [Polyamide 1029, ImPPPβPPβγNH2PPβPPPβPβDp]
IC50 (HPV 16): 100 to 1000 nM | IC50 (HPV18): ≥ 1000 nM | IC50 (HPV31): 100 to 1000 nM

CN(CCCN)CCCNC(=O)CCNC(=O)c1cc(NC(=O)c2cc(NC(=O)c3cc(NC(=O)c4cc(NC(=O)CCNC(=O)c5cc(NC(=O)c6cc(NC(=O)[C@H](N)CCNC(=O)c7cc(NC(=O)c8cc(NC(=O)c9cc(NC(=O)CCNC(=O)c%10cc(NC(=O)c%11cc(NC(=O)c%12nccn%12C)cn%11C)cn%10C)cn9C)cn8C)cn7C)cn6C)cn5C)cn4C)cn3C)cn2C)cn1C [Polyamide 1030, ImPPβPPPγNH2PPβPPPPβTa]
IC50 (HPV 16): 100 to 1000 nM | IC50 (HPV18): 100 to 1000 nM | IC50 (HPV31): 100 to 1000 nM

CN(CCCN)CCCNC(=O)CCNC(=O)CCNC(=O)c1cc(NC(=O)c2cc(NC(=O)c3cc(NC(=O)CCNC(=O)c4cc(NC(=O)c5cc(NC(=O)c6cc(NC(=O)CCCNC(=O)c7cc(NC(=O)c8cc(NC(=O)c9cc(NC(=O)CCNC(=O)c%10cc(NC(=O)c%11cc(NC(=O)c%12cc(NC(=O)c%13nccn%13C)cn%12C)cn%11C)cn%10C)cn9C)cn8C)cn7C)cn6C)cn5C)cn4C)cn3C)cn2C)cn1C [Polyamide 1031, ImPPPβPPPγPPPβPPPββTa]
IC50 (HPV 16): 100 to 1000 nM | effect on absolute HPV 16 DNA levels (HPV 16; higher doses, in some experiments, FIG. 3): nearly complete elimination of detectable viral DNA | IC50 (HPV18): 100 to 1000 nM | IC50 (HPV31): 100 to 1000 nM

CN(CCCN)CCCNC(=O)CCNC(=O)c1cc(NC(=O)CCNC(=O)c2cc(NC(=O)c3cc(NC(=O)c4cc(NC(=O)CCNC(=O)c5cc(NC(=O)c6cc(NC(=O)[C@H](N)CCNC(=O)CCNC(=O)c7cc(NC(=O)c8cc(NC(=O)CCNC(=O)c9cc(NC(=O)c%10cc(NC(=O)c%11cc(NC(=O)c%12nccn%12C)cn%11C)cn%10C)cn9C)cn8C)cn7C)cn6C)cn5C)cn4C)cn3C)cn2C)cn1C [Polyamide 1032, ImPPPβPPβγNH2PPβPPPβPβTa]
IC50 (HPV 16): 100 to 1000 nM | IC50 (HPV31): 100 to 1000 nM

CN(CCCN)CCCNC(=O)CCNC(=O)CCNC(=O)c1cc(NC(=O)c2cc(NC(=O)c3cc(NC(=O)CCNC(=O)c4cc(NC(=O)c5cc(NC(=O)c6cc(NC(=O)C(N)CCNC(=O)c7cc(NC(=O)c8cc(NC(=O)c9cc(NC(=O)CCNC(=O)c%10cc(NC(=O)c%11cc(NC(=O)c%12cc(NC(=O)c%13nccn%13C)cn%12C)cn%11C)cn%10C)cn9C)cn8C)cn7C)cn6C)cn5C)cn4C)cn3C)cn2C)cn1C (stereo not drawn) [Polyamide 1033, ImPPPβPPPγNH2PPPβPPPββTa]
IC50 (HPV 16): > 1000 nM | IC50 (HPV31): ≥ 1000 nM

CN(C)CCCNC(=O)CCNC(=O)c1cc(NC(=O)c2cc(NC(=O)c3cc(NC(=O)CCNC(=O)c4cc(NC(=O)c5cc(NC(=O)c6cc(NC(=O)CCNC(=O)c7cc(NC(=O)c8cc(NC(=O)CCCNC(=O)c9cc(NC(=O)c%10cc(NC(=O)CCNC(=O)c%11nc(NC(=O)c%12cc(NC(=O)c%13cc(NC(=O)CCNC(=O)c%14cc(NC(=O)c%15cc(NC(=O)c%16nccn%16C)cn%15C)cn%14C)cn%13C)cn%12C)cn%11C)cn%10C)cn9C)cn8C)cn7C)cn6C)cn5C)cn4C)cn3C)cn2C)cn1C [Polyamide 1040, ImPPβPPIβPPγPPβPPPβPPPβDp]
IC50 (HPV 16): 100 to 1000 nM | IC50 (HPV18): 100 to 1000 nM | IC50 (HPV31): 100 to 1000 nM

CN(CCCN)CCCNC(=O)CCNC(=O)c1cc(NC(=O)c2cc(NC(=O)c3cc(NC(=O)CCNC(=O)c4cc(NC(=O)c5cc(NC(=O)c6cc(NC(=O)CCNC(=O)c7cc(NC(=O)c8cc(NC(=O)CCCNC(=O)c9cc(NC(=O)c%10cc(NC(=O)CCNC(=O)c%11nc(NC(=O)c%12cc(NC(=O)c%13cc(NC(=O)CCNC(=O)c%14cc(NC(=O)c%15cc(NC(=O)c%16nccn%16C)cn%15C)cn%14C)cn%13C)cn%12C)cn%11C)cn%10C)cn9C)cn8C)cn7C)cn6C)cn5C)cn4C)cn3C)cn2C)cn1C [Polyamide 1042, ImPPβPPIβPPγPPβPPPβPPPβTa]
IC50 (HPV31): ≤ 100 nM

CN(CCCN)CCCNC(=O)CCNC(=O)c1cc(NC(=O)c2cc(NC(=O)c3cc(NC(=O)CCNC(=O)c4cc(NC(=O)c5cc(NC(=O)c6cc(NC(=O)CCNC(=O)c7cc(NC(=O)CCNC(=O)CCCNC(=O)c8nc(NC(=O)c9cc(NC(=O)c%10cc(NC(=O)CCNC(=O)c%11cc(NC(=O)c%12nc(NC(=O)c%13cc(NC(=O)CCNC(=O)c%14cc(NC(=O)c%15cc(NC(=O)c%16nccn%16C)cn%15C)cn%14C)cn%13C)cn%12C)cn%11C)cn%10C)cn9C)cn8C)cn7C)cn6C)cn5C)cn4C)cn3C)cn2C)cn1C [Polyamide 1045, ImPPβPIPβPPIγβPβPPPβPPPβTa]
IC50 (HPV 16): > 1000 nM | IC50 (HPV18): 100 to 1000 nM | IC50 (HPV31): ≥ 1000 nM

CN(C)CCCNC(=O)CCNC(=O)c1cc(NC(=O)c2cc(NC(=O)c3cc(NC(=O)CCNC(=O)c4cc(NC(=O)c5cc(NC(=O)c6cc(NC(=O)CCNC(=O)c7cc(NC(=O)c8cc(NC(=O)c9cc(NC(=O)CCCNC(=O)c%10cc(NC(=O)c%11cc(NC(=O)CCNC(=O)c%12cc(NC(=O)c%13cc(NC(=O)c%14cc(NC(=O)CCNC(=O)c%15cc(NC(=O)c%16cc(NC(=O)c%17cc(NC(=O)c%18nccn%18C)cn%17C)cn%16C)cn%15C)cn%14C)cn%13C)cn%12C)cn%11C)cn%10C)cn9C)cn8C)cn7C)cn6C)cn5C)cn4C)cn3C)cn2C)cn1C [Polyamide 1047, ImPPPβPPPβPPγPPPβPPPβPPPβDp]
IC50 (HPV 16): > 1000 nM | IC50 (HPV18): ≥ 1000 nM | IC50 (HPV31): ≥ 1000 nM

ImPPPβPPPγNH2PPPβPPPββDp [Polyamide 1026]
IC50 (HPV 16): 100 to 1000 nM | IC50 (HPV31): 100 to 1000 nM
